# Measurements published in patent publication US9469613B2, “(N-(cyanomethyl)-4-(2-(4-morpholinophenylamino)pyrimidin-4-yl)benzamide” (Gilead Sciences, Inc., priority 2014, dated 2016).
# Where a name gives a salt, the structure may show the parent alone.
# Tests used:
# [1] = Relative bioavailability of CYT-0387 tablet vs capsule, food and omeprazole effect, healthy subjects; format: in vivo, human; settings: from 100 to 800 mg
# Description: CYT-0387 is a selective small molecule inhibitor of Janus kinase 1 and 2 (JAK1/JAK2), and is currently under investigation to treat myelofibrosis. In a Phase 1/2 study in myelofibrosis patients, 300 mg CYT-0387 capsule once daily was selected as Phase 3 dose based on a favorable benefit:risk profile. An immediate release tablet formulation (CYT-0387 tablet) was developed for further clinical evaluation. The relative bioavailability of CYT-0387 tablet vs capsule was evaluated in this study to identify Phase 3 dose of CYT-0387 tablet. CYT-0387 tablet (100 to 300 mg) vs capsule (300 mg) pharmacokinetics (PK) after a single dose was evaluated in healthy subjects. CYT-0387 tablet PK at supratherapeutic doses (400 and 800 mg), under fed and fasted conditions, and with an acid reducing agent (i.e., omeprazole) was also evaluated. Intensive PK sampling occurred up to 36 hours postdose. Safety was monitored throughout the study. A parametric analysis of variance (ANOVA) using a mixed-effects model was used to fit to the natural logarithmic transformation of PK parameters (AUC and Cmax). The 90% confidence intervals were constructed for the ratio of geometric means of CYT-0387 tablet PK at 100, 150, 200 and 300 mg vs CYT-0387 capsule 300 mg, using equivalence bounds of 70% to 143% for AUC and Cmax. A similar approach was used to assess the effect of food and omeprazole.
# [2] = tested on: hyperproliferative diseases (PV, ET, PMF), myelofibrosis; settings: cited from earlier work
# [3] = Solid form hygroscopicity and stability; format: physicochemical; settings: conditions suitable for manufacturing and/or storage
# Description: Dynamic Vapor Sorption: The hygroscopicity of N-(cyanomethyl)-4-(2-(4-morpholinophenylamino)pyrimidin-4-yl)benzamide dihydrochloride monohydrate Form II was evaluated at room temperature using a dynamic vapor sorption (DVS) instrument (TGA Q5000 TA Instruments, New Castle, Del.). Water adsorption and desorption were studied as a function of relative humidity (RH) over the range of 0 to 90% at room temperature. The humidity in the chamber was increased from the initial level 50% RH) to 60% RH and held until the solid and atmosphere reached equilibration. The equilibrium test was continued until passed or expired after 10 hours. At this point, RH was raised 10% higher and the process was repeated until 90% RH was reached and equilibrated. During this period, the water sorption was monitored. For desorption, the relative humidity was decreased in a similar manner to measure a full sorption/desorption cycle. All experiments were operated in dm/dt mode (mass variation over time) to determine the equilibration endpoint. Approximately 4 mg of solid CYT-0387 was used. Data analysis was conducted using Universal Analysis 2000 Version 4.7A (TA Instruments, New Castle, Del., USA).
# [4] = Effects of antioxidants on degradation of CYT-0387 Form II in aqueous solution (HPLC); format: physicochemical
# Description: This was determined from the study that investigated the potential effects of different antioxidants in inhibiting or preventing degradation of CYT-0387 dihydrochloride monohydrate Form II. In the initial study, five antioxidants of three different mechanisms of action were examined: free radical scavenger antioxidants (propyl gallate, butylated hydroxyanisole (BHA), and butylated hydroxytoluene (BHT)), a sacrificial reductant (ascorbic acid), and an oxygen scavenger (sodium metabisulfite).
# Aqueous solutions containing 20 μg/mL of CYT-0387 dihydrochlorid monohydrate Form II in 70% (v/v) 50 mM acetate buffer (pH 4.0) and 30% (v/v) methanol were incubated in absence (which was used as control) and presence of 0.1% (w/v) antioxidant at 60° C. for up to 7 days. At Day 0, 5 and 7, the solution was analyzed using a reverse-phase HPLC with a Zorbax SB-C8 column ([…].). […] While total degradation products could not be determined for 0.1% ascorbic acid due to interference, the main oxidative degradation products were not observed (data not shown).
# In additional studies, the effects of the lower concentrations of 0.01% and 0.001% (w/v) of propyl gallate, BHA, and ascorbic acid on the stability of CYT-0387 were examined under the same condition. […] Moreover, at 0.001% (w/v) antioxidant level, the presence of propyl gallate decreased or inhibited the degradation of CYT-0387 relative to BHA and ascorbic acid (Table 7).
# [5] = Stability of 100 mg tablet formulation with different propyl gallate levels; format: physicochemical; settings: for Total Degradation: 100 mg tablet, 40° C./75% RH
# Description: Next, the stability of 100 mg tablet formulation comprising CYT-0387 Form II was examined in the presence of 0%, 0.2%, 0.5%, or 1.0% propyl gallate at 25° C./60% RH (relative humidity) or 40° C./75% RH for up to 6 months. The degradation profiles were determined at month 0, 1, 3, and 6.
compound,measurement,setting,value
"N#CCNC(=O)c1ccc(-c2ccnc(Nc3ccc(N4CCOCC4)cc3)n2)cc1 [CYT-0387, N-(cyanomethyl)-4-(2-(4-morpholinophenylamino)pyrimidin-4-yl)benzamide]",dose proportionality of plasma exposures,[1],less-than-dose-proportionally
same,"efficacy in treating hyperproliferative diseases (PV, ET, PMF)",[2]; clinical studies,effective
same,anemia and/or spleen responses,[2]; patients having myelofibrosis,improvement
"N#CCNC(=O)c1ccc(-c2ccnc(Nc3ccc(N4CCOCC4)cc3)n2)cc1 [CYT-0387 Form II, N-(cyanomethyl)-4-(2-(4-morpholinophenylamino)pyrimidin-4-yl)benzamide dihydrochloride monohydrate Form II]",thermodynamic stability of the dihydrochloride salt form,[3],thermodynamically stable form
same,main oxidative degradation products,"[4]; 0.1% ascorbic acid, 60° C. (data not shown)",not observed
same,amount degraded,"[4]; in the presence of 0.1% (w/v) propyl gallate or BHA, 60° C., up to 7 days",Less than one percent
same,Total Degradation,"[4]; pH 4 aqueous buffer, 60° C., control, no antioxidant, day 0",0.29%
same,Total Degradation,"[4]; pH 4 aqueous buffer, 60° C., control, no antioxidant, day 5",17.24%
same,Total Degradation,"[4]; pH 4 aqueous buffer, 60° C., control, no antioxidant, day 7",21.84%
same,Total Degradation,"[4]; pH 4 buffer, 60° C., BHA 0.001% w/v, day 0",0.30%
same,Total Degradation,"[4]; pH 4 buffer, 60° C., BHA 0.001% w/v, day 5",7.64%
same,Total Degradation,"[4]; pH 4 buffer, 60° C., BHA 0.001% w/v, day 7",13.76%
same,Total Degradation,"[4]; pH 4 buffer, 60° C., BHA 0.01% w/v, day 0",0.55%
same,Total Degradation,"[4]; pH 4 buffer, 60° C., BHA 0.01% w/v, day 5",1.75%
same,Total Degradation,"[4]; pH 4 buffer, 60° C., BHA 0.01% w/v, day 7",3.04%
same,Total Degradation,"[4]; pH 4 buffer, 60° C., BHA 0.1% w/v, day 0",0.45%
same,Total Degradation,"[4]; pH 4 buffer, 60° C., BHA 0.1% w/v, day 5",0.50%
same,Total Degradation,"[4]; pH 4 buffer, 60° C., BHA 0.1% w/v, day 7",1.24%
same,Total Degradation,"[4]; pH 4 buffer, 60° C., BHT 0.1% w/v, day 0",0.06%
same,Total Degradation,"[4]; pH 4 buffer, 60° C., BHT 0.1% w/v, day 5",1.71%
same,Total Degradation,"[4]; pH 4 buffer, 60° C., BHT 0.1% w/v, day 7",4.35%
same,Total Degradation,"[4]; pH 4 buffer, 60° C., ascorbic acid 0.001% w/v, day 0",0.51%
same,Total Degradation,"[4]; pH 4 buffer, 60° C., ascorbic acid 0.001% w/v, day 5",17.95%
same,Total Degradation,"[4]; pH 4 buffer, 60° C., ascorbic acid 0.001% w/v, day 7",21.28%
same,Total Degradation,"[4]; pH 4 buffer, 60° C., ascorbic acid 0.01% w/v, day 0",0.20%
same,Total Degradation,"[4]; pH 4 buffer, 60° C., ascorbic acid 0.01% w/v, day 5",1.58%
same,Total Degradation,"[4]; pH 4 buffer, 60° C., ascorbic acid 0.01% w/v, day 7",1.78%
same,Total Degradation,"[4]; pH 4 buffer, 60° C., propyl gallate 0.001% w/v, day 0",0.22%
same,Total Degradation,"[4]; pH 4 buffer, 60° C., propyl gallate 0.001% w/v, day 5",1.98%
same,Total Degradation,"[4]; pH 4 buffer, 60° C., propyl gallate 0.001% w/v, day 7",4.32%
same,Total Degradation,"[4]; pH 4 buffer, 60° C., propyl gallate 0.01% w/v, day 0",0.22%
same,Total Degradation,"[4]; pH 4 buffer, 60° C., propyl gallate 0.01% w/v, day 5",0.38%
same,Total Degradation,"[4]; pH 4 buffer, 60° C., propyl gallate 0.01% w/v, day 7",0.72%
same,Total Degradation,"[4]; pH 4 buffer, 60° C., propyl gallate 0.1% w/v, day 0",0.29%
same,Total Degradation,"[4]; pH 4 buffer, 60° C., propyl gallate 0.1% w/v, day 5",0.31%
same,Total Degradation,"[4]; pH 4 buffer, 60° C., propyl gallate 0.1% w/v, day 7",0.32%
same,Total Degradation,"[4]; pH 4 buffer, 60° C., sodium metabisulfite 0.1% w/v, day 0",0.33%
same,Total Degradation,"[4]; pH 4 buffer, 60° C., sodium metabisulfite 0.1% w/v, day 5",43.83%
same,Total Degradation,"[4]; pH 4 buffer, 60° C., sodium metabisulfite 0.1% w/v, day 7",46.31%
same,Total Degradation,"[5]; propyl gallate 0%, month 0",0.10%
same,Total Degradation,"[5]; propyl gallate 0%, month 1",0.68%
same,Total Degradation,"[5]; propyl gallate 0%, month 3",1.01%
same,Total Degradation,"[5]; propyl gallate 0%, month 6",1.28%
same,Total Degradation,"[5]; propyl gallate 0.2%, month 0",0.10%
same,Total Degradation,"[5]; propyl gallate 0.2%, month 1",0.34%
same,Total Degradation,"[5]; propyl gallate 0.2%, month 3",0.67%
same,Total Degradation,"[5]; propyl gallate 0.2%, month 6",0.80%
same,Total Degradation,"[5]; propyl gallate 0.5%, month 0",0.11%
same,Total Degradation,"[5]; propyl gallate 0.5%, month 1",0.39%
same,Total Degradation,"[5]; propyl gallate 0.5%, month 3",0.67%
same,Total Degradation,"[5]; propyl gallate 0.5%, month 6",0.95%
same,Total Degradation,"[5]; propyl gallate 1.0%, month 0",0.14%
same,Total Degradation,"[5]; propyl gallate 1.0%, month 1",0.44%
same,Total Degradation,"[5]; propyl gallate 1.0%, month 3",0.87%
same,Total Degradation,"[5]; propyl gallate 1.0%, month 6",1.34%
same,degradation in 100 mg tablet,"[5]; 25° C./60% RH, propyl gallate at 0.2%, 0.5%, and 1.0% (data not shown)",reduced
